Experimental data as given in ChEMBL document CHEMBL1201862, “PubChem BioAssay data set” (2004).
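Following 48 hours of exposure in 96-well plates, responses at five concentrations were used to interpolate endpoints linearly. GI50: concentration for 50% inhibition of growth.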 Calls of active or inactive are those of the source. Rule as the data show it: active = GI50 up to about 1.1 µM and inactive = higher.

Experiments:
Experiment in all cases: inhibition of tumour cell growth, NCI panel, 48 h
[1] = test system: SNB-75
[2] = test system: RXF 393
[3] = test system: COLO 205
[4] = test system: KM12
[5] = test system: MOLT-4
[6] = test system: BT-549
[7] = test system: PC-3
[8] = test system: MDA-MB-435
[9] = test system: LOX IMVI
[10] = test system: Malme-3M
[11] = test system: SK-MEL-28
[12] = test system: OVCAR-3
[13] = test system: NCI-H226
[14] = test system: M14
[15] = test system: ACHN
[16] = test system: Hs-578T
[17] = test system: SNB-19
[18] = test system: UO-31
[19] = test system: HCT-116
[20] = test system: SF-268
[21] = test system: SN12C
[22] = test system: MDA-MB-231
[23] = test system: HOP-92
[24] = test system: U-251
[25] = test system: TK-10
[26] = test system: SK-OV-3
[27] = test system: HT-29
[28] = test system: K562
[29] = test system: UACC-62
[30] = test system: MDA-N
[31] = test system: SK-MEL-5
[32] = test system: HL-60
[33] = test system: SW-620
[34] = test system: RPMI-8226
[35] = test system: OVCAR-5
[36] = test system: NCI-H522
[37] = test system: MCF7
[38] = test system: A498
[39] = test system: HCC 2998
[40] = test system: OVCAR-8
[41] = test system: SF-295
[42] = test system: DU-145
[43] = test system: SK-MEL-2
[44] = test system: SF-539
[45] = test system: 786-0
[46] = test system: IGROV-1
[47] = test system: EKVX
[48] = test system: A549
[49] = test system: NCI-H460
[50] = test system: NCI/ADR-RES
[51] = test system: CCRF-CEM
[52] = test system: T47D
[53] = test system: UACC-257
[54] = test system: NCI-H23
[55] = test system: OVCAR-4
[56] = test system: HOP-62
[57] = test system: CAKI-1
[58] = test system: HCT-15

For Nc1ccc(-c2nc3cc(F)ccc3s2)cc1I, the GI50 [1] was 16.1 µM (inactive), the GI50 [2] was 15 µM (inactive) and the GI50 [3] was 2.45 µM (inactive). For the same molecule, the GI50 [4] was 14.7 µM (inactive), the GI50 [5] was > 100 µM (inactive) and the GI50 [6] was 13.5 µM (inactive). For the same molecule, the GI50 [7] was 24.2 µM (inactive), the GI50 [8] was > 80.9 µM (inactive) and the GI50 [9] was 39.5 µM (inactive). The GI50 [10] was 26.1 µM (inactive), the GI50 [11] was 52.7 µM (inactive) and the GI50 [12] was 0.255 µM (active). For the same molecule, the GI50 [13] was 0.979 µM (active), the GI50 [14] was 39.3 µM (inactive) and the GI50 [15] was 5.36 µM (inactive). For the same molecule, the GI50 [16] was 25.2 µM (inactive), the GI50 [17] was 21.1 µM (inactive) and the GI50 [18] was 16.1 µM (inactive). For the same molecule, the GI50 [19] was 18.5 µM (inactive), the GI50 [20] was 16.5 µM (inactive) and the GI50 [21] was 20.9 µM (inactive). The GI50 [22] was 13.6 µM (inactive), the GI50 [23] was 17.3 µM (inactive) and the GI50 [24] was 13.9 µM (inactive). The GI50 [25] was 0.0351 µM (active), the GI50 [26] was 14.4 µM (inactive) and the GI50 [27] was 0.889 µM (active). For the same molecule, the GI50 [28] was > 77.3 µM (inactive), the GI50 [29] was 19.6 µM (inactive) and the GI50 [30] was > 100 µM (inactive). For the same molecule, the GI50 [31] was 21.7 µM (inactive), the GI50 [32] was > 100 µM (inactive) and the GI50 [33] was 27.5 µM (inactive). For the same molecule, the GI50 [34] was > 100 µM (inactive), the GI50 [35] was 0.274 µM (active) and the GI50 [36] was 13.6 µM (inactive). The GI50 [37] was < 0.0154 µM (active), the GI50 [38] was 15.8 µM (inactive) and the GI50 [39] was < 0.01 µM (active). For the same molecule, the GI50 [40] was 19.1 µM (inactive), the GI50 [41] was 14.2 µM (inactive) and the GI50 [42] was 43.7 µM (inactive). The GI50 [43] was 20.2 µM (inactive), the GI50 [44] was 15.6 µM (inactive) and the GI50 [45] was 16.2 µM (inactive). The GI50 [46] was < 0.01 µM (active), the GI50 [47] was 9.46 µM (inactive) and the GI50 [48] was 23.6 µM (inactive). The GI50 [49] was 0.0276 µM (active), the GI50 [50] was 18.8 µM (inactive) and the GI50 [51] was > 100 µM (inactive). For the same molecule, the GI50 [52] was 0.0658 µM (active), the GI50 [53] was 49.3 µM (inactive) and the GI50 [54] was 0.445 µM (active). The GI50 [55] was 0.0782 µM (active), the GI50 [56] was 10.2 µM (inactive) and the GI50 [57] was 15.6 µM (inactive). It also gave a GI50 [58] of 1.34 µM.
Cc1cc(C)c(S(=O)(=O)N2CCCN(S(=O)(=O)c3c(C)cc(C)cc3C)OCCCO2)c(C)c1 was tested, and the GI50 [1] was 57.1 µM (inactive), the GI50 [2] was > 100 µM (inactive) and the GI50 [3] was > 100 µM (inactive). The GI50 [4] was > 100 µM (inactive), the GI50 [5] was > 100 µM (inactive) and the GI50 [6] was > 100 µM (inactive). For the same molecule, the GI50 [7] was 89.3 µM (inactive), the GI50 [8] was > 100 µM (inactive) and the GI50 [9] was > 100 µM (inactive). The GI50 [10] was > 100 µM (inactive), the GI50 [11] was > 100 µM (inactive) and the GI50 [12] was > 100 µM (inactive). The GI50 [13] was > 100 µM (inactive), the GI50 [14] was > 100 µM (inactive) and the GI50 [15] was > 100 µM (inactive). The GI50 [16] was > 100 µM (inactive), the GI50 [17] was > 100 µM (inactive) and the GI50 [18] was > 100 µM (inactive). For the same molecule, the GI50 [19] was > 100 µM (inactive), the GI50 [20] was > 100 µM (inactive) and the GI50 [21] was > 100 µM (inactive). The GI50 [22] was > 100 µM (inactive), the GI50 [23] was 47.1 µM (inactive) and the GI50 [24] was > 100 µM (inactive). For the same molecule, the GI50 [25] was > 100 µM (inactive), the GI50 [26] was > 100 µM (inactive) and the GI50 [27] was > 100 µM (inactive). For the same molecule, the GI50 [28] was > 100 µM (inactive), the GI50 [29] was > 100 µM (inactive) and the GI50 [30] was > 100 µM (inactive). For the same molecule, the GI50 [31] was > 100 µM (inactive), the GI50 [32] was > 100 µM (inactive) and the GI50 [33] was > 100 µM (inactive). The GI50 [35] was > 100 µM (inactive), the GI50 [36] was > 100 µM (inactive) and the GI50 [37] was > 100 µM (inactive). For the same molecule, the GI50 [38] was > 100 µM (inactive), the GI50 [40] was > 100 µM (inactive) and the GI50 [41] was > 100 µM (inactive). The GI50 [42] was > 100 µM (inactive), the GI50 [43] was > 100 µM (inactive) and the GI50 [45] was > 100 µM (inactive). For the same molecule, the GI50 [46] was > 100 µM (inactive), the GI50 [47] was > 100 µM (inactive) and the GI50 [48] was > 100 µM (inactive). The GI50 [49] was > 100 µM (inactive), the GI50 [50] was > 100 µM (inactive) and the GI50 [51] was > 100 µM (inactive). For the same molecule, the GI50 [52] was 63.5 µM (inactive), the GI50 [53] was 45.9 µM (inactive) and the GI50 [54] was 75.5 µM (inactive). For the same molecule, the GI50 [55] was 79.4 µM (inactive), the GI50 [56] was > 100 µM (inactive) and the GI50 [57] was > 100 µM (inactive). It also gave a GI50 [58] greater than 100 µM.
